Reference: the supplement of paper PMC10307832

Columns and labels:
Experiment in all cases: relative viability (nuclei count vs DMSO), 5 days (fraction); higher = more cells survive
[1] = compound: CCC1=CN=CN=C1N2CCN(CC2)CC3=NC4=C(N3)C=C(C=C4)C(F)(F)F + Nc1nc2[nH]cc(CCc3ccc(C(=O)N[C@@H](CCC(=O)O)C(=O)O)cc3)c2c(=O)[nH]1 [Pemetrexed] (partner 0.2 µM)
Summary of the method: (§1)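 Relative viability equals treated-well nuclei counts divided by vehicle-well nuclei counts. Counts came from 4× images of lung cancer cell lines grown in 1536-well plates for 5 days after pin-tool dosing on the day after seeding. Dosing used one drug alone or a fixed anchor-drug dose plus five library-drug doses (not always all listed) in √10 steps, and values are medians of duplicate plates.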

[2] = compound: CCn1c(-c2nonc2N)nc2cnc(Oc3cccc(NC(=O)c4ccc(OCCN5CCOCC5)cc4)c3)cc21 + CS(=O)(=O)N1CCN(Cc2cc3nc(-c4cccc5[nH]ncc45)nc(N4CCOCC4)c3s2)CC1 [Pictilisib] (partner 1 µM)
Summary of the method: as §1

[3] = compound: CCC1=CN=CN=C1N2CCN(CC2)CC3=NC4=C(N3)C=C(C=C4)C(F)(F)F + COc1cccc2cc(-c3nc([C@H]4CC[C@H](C(=O)O)CC4)n4ncnc(N)c34)[nH]c12 [OSI-027] (partner 0.5 µM)
Summary of the method: as §1

[4] = compound: CCC1=CN=CN=C1N2CCN(CC2)CC3=NC4=C(N3)C=C(C=C4)C(F)(F)F + O=C(CCCCCCC(=O)Nc1ccccc1)NO [Vorinostat] (partner 1 µM)
Summary of the method: as §1

Cell Line	relative viability ([1]; first compound 0.04 µM)	relative viability ([1]; first compound 0.1265 µM)	relative viability ([1]; first compound 0.4 µM)	relative viability ([1]; first compound 1.265 µM)	relative viability ([1]; first compound 4 µM)	relative viability ([2]; first compound 0.1265 µM)	relative viability ([2]; first compound 0.4 µM)	relative viability ([2]; first compound 1.265 µM)	relative viability ([2]; first compound 4 µM)	relative viability ([3]; first compound 0.04 µM)	relative viability ([3]; first compound 0.1265 µM)	relative viability ([3]; first compound 0.4 µM)	relative viability ([3]; first compound 1.265 µM)	relative viability ([3]; first compound 4 µM)	relative viability ([4]; first compound 0.04 µM)	relative viability ([4]; first compound 0.1265 µM)	relative viability ([4]; first compound 0.4 µM)	relative viability ([4]; first compound 1.265 µM)	relative viability ([4]; first compound 4 µM)	relative viability ([2]; first compound 0.04 µM)
NCI-H2087	0.634	0.732	0.72	0.632	0.55	1.07	0.981	0.881	0.785	0.584	0.56	0.385	0.451	0.5	0.929	0.881	0.707	0.659	0.638	
NCI-H2126	0.75	0.695	0.725	0.657	0.709	0.525	0.461	0.567	0.649	0.759	0.688	0.624	0.628	0.708	0.794	0.781	0.766	0.595	0.742	0.568
NCI-H2170	0.265	0.266	0.291	0.256	0.263	0.27	0.229	0.247	0.258	0.672	0.682	0.752	0.732	0.726	0.787	0.731	0.778	0.724	0.815	0.279
NCI-H2228		0.363	0.335	0.303	0.294	0.3	0.229	0.605	0.254	0.535	0.633	0.487	0.635	0.656		0.63	0.587	0.693	0.496	0.607
NCI-H2347	0.422	0.408	0.434	0.373	0.442	0.648	1.05	0.556	0.563	0.471	0.446	0.374	0.262	0.406	0.61	0.673	0.649	0.321	0.516	0.94
NCI-H2405	1.02	1.05	0.992		1.15	0.23	0.15	0.261	0.171	0.723	0.614	0.669		0.717	1.03	0.961	0.925		1.12	0.454
NCI-H3122	0.21	0.184	0.202	0.203	0.215	0.672	0.516	0.674	0.542	1.02	0.974	0.937	0.938	1.17	1.04	0.863	1.01	1.03	0.875	0.879
PC-3 [JPC-3]		0.983	1.07	0.959	1.09	0.775	0.68	0.723	0.714	0.65	0.67	0.705	0.731	0.728		0.737	0.738	0.701	0.885	0.919
PC-14	0.135	0.153	0.141	0.13	0.135	0.708	0.751	0.619	0.666	0.871	0.814	0.809	0.766	0.82	0.764	0.756	0.688	0.691	0.657	1.06
RERF-LC-KJ	0.393	0.455	0.459	0.441	0.476	0.452	0.516	0.476	0.377	0.517	0.584	0.602	0.517	0.601	0.638	0.717	0.715	0.634	0.704	0.541
SK-LU-1	0.892	0.992	0.958	0.985	0.998	0.448	0.432	0.336	0.416	0.386	0.315	0.337	0.3	0.357	0.675	0.74	0.76	0.777	0.68	0.686
SK-MES-1	1.03	1.01	1	0.993	1.03	0.355	0.386	0.422	0.323	0.648	0.592	0.597	0.57	0.622	1.11	1.04	1.01	1.03	1.08	0.365
SW 1573	0.884	0.947	0.83	0.747	0.885	0.507	0.492	0.487	0.312	0.529	0.582	0.53	0.49	0.499	0.623	1.08	0.756	0.575	0.734	0.545
